Results from patent EP0366226A1, “Stabilized thiocarbonate solutions and the use thereof for controlling soil pests” (UNION OIL COMPANY OF CALIFORNIA, priority 1988, dated 1990).
Counter-ions that a name gives are not always drawn.

Experiments:
[1] = Accelerated ageing at 84° C.: effect of additives on thiocarbonate half-life; type: physicochemical; details: parentheses = decrease
Procedure: The effect of elemental sulfur additions and the addition of free radical scavengers on the half-life of thiocarbonate solutions was determined by an accelerated adding procedure in which the compositions were stored at 84° C. in order to accelerate decomposition and thereby facilitate data acquisition. Incremental additions of 1.0, 3.0 and 5.0 weight percent elemental sulfur were made, and these corresponds to 0.16, 0.48 and 0.86 equivalents of sulfur per equivalent of ammonium sulfide, respectively. Since the solutions contained 1 equivalent of ammonium sulfide per equivalent of ammonium tetrathiocarbonate (based on the weight percent values for those components given above), the amount of ammonium polysulfide in the solution correspond, nominally, to 0.16, 0.48 and 0.86 equivalents polysulfide per equivalent of thiocarbonate for the 3 sulfur concentrations employed.

Phytophthora cinnamomi = assay: Fungicidal test, radial growth of mycelia from treated agar blocks; type: cell-based
Procedure: (§1) Thiocarbonate solutions were used in a test of their fungicidal properties. Cultures of four plant pathogenic fungi were grown upon potato dextrose agar at room temperature, in diffuse natural lighting. After one week, square blocks having 2 millimeter sides were cut from the edges of actively drawings mycelia spots on the agar.
(§2) The blocks were immersed in sterile deionized water, as a control, or in dilutions of thiocarbonate solutions using the sterile water, in a closed container. Subsequently, the blocks were removed and placed upon agar in clean plates, and mycelia were allowed to grow for one week.
(§3) Radial growth of mycelia colonies was measured for each of the six to eight replicate plates used for a particular fungus, and average colony radius was calculated. Percent control is defined by the following equation: […]
(§4) Concentrations given for solutions used to treat the agar blocks are expressed in grams of thiocarbonate solution per liter of diluted solution.

Verticillium dahliae = assay: as above; type: cell-based
Procedure: as §1, §2, §3, §4

Fusarium oxysporum = assay: as above; type: cell-based
Procedure: as §1, §2, §3, §4

Sclerotium rolfsii = assay: as above; type: cell-based
Procedure: as §1, §2, §3, §4

[2] = Degradation time in sandy loam soil at different moisture (CS2 in air space by gas chromatography); type: physicochemical
Procedure: A sandy loam soil was placed in 1-liter glass bottles, fitted with stoppers having fluorocarbon liners and silicone rubber septa, to give a soil depth of about 4 cm. Water was added to the soil, in quantities to obtain 50 and 100 percent soil saturation. Thiocarbonate solution or carbon disulfide was then injected near the bottom of the soil layer, the bottles were promptly sealed, and the air space in the bottles was sampled at intervals with a syringe, for gas chromatographic analysis of CS₂. The results are summarized below, wherein degradation time is the number of hours required to achieve the maximum CS₂ concentration in the air space.

[3] = Solvency of aqueous thiocarbonate solutions for urea; type: physicochemical; details: 46 percent solution
Procedure: Urea was added to a 41.5 percent, by weight, aqueous solution of calcium tetrathiocarbonate until the solubility limit of urea was reached. At room temperature, the solution dissolved 122 percent by weight urea. The resulting solution was 55 percent urea, 18.6 percent calcium tetrathiocarbonate, and 26.3 percent water, by weight. Thus, the solvency of the aqueous solution of calcium tetrathiocarbonate for urea was at least as great as that of water alone. Similarly, a 46 percent solution of potassium tetrathiocarbonate dissolved 100 percent of its own weight of urea. Similar results were obtained with other tri- and tetrathiocarbonates of alkali metal and alkaline earth metals.

[4] = CS2 in equilibrium vapor phase over concentrated thiocarbonate solutions (gas chromatography); type: physicochemical; details: for equilibrium CS₂ concentration in the vapor phase: 24° C., stoichiometric aqueous solution, 12.9 weight percent equivalent carbon disulfide
Procedure: Accordingly, the amount of base, sulfide and/or polysulfide employed should be sufficient to reduce the carbon disulfide partial pressure of the solution by the desired amount, and the amount of additive required to achieve that effect can be easily determined by adding different, known quantities of base, sulfide and/or polysulfide to the desired thiocarbonate solution, confining the vapor space over the solution at 24° C. for a sufficient period of time, e.g. about 24 hours, and analyzing, the vapor phase by gas chromotography for carbon disulfide. Lower additive concentrations will result in somewhat higher CS₂ equilibrium concentrations (e.g. higher CS₂ partial pressures), and higher additive concentrations will result in lower CS₂ partial pressures.
A series of solutions containing 12.9 weight percent equivalent carbon disulfide as sodium tri- or tetrathiocarbonate were prepared by combining sodium hydroxide, deionized water, sulfur (in the case of tetrathiocarbonate only), hydrogen sulfide and carbon disulfide. In the stoichiometric solutions, the reactants were combined in proportions sufficient to provide sodium tri- or tetrathiocarbonate solutions containing 12.9 weight percent equivalent carbon disulfide without any excess reactant. In addition to the stoichiometric solutions, solutions were prepared with systematically increasing sodium hydroxide concentrations at constant equivalent carbon disulfide concentrations, so that excess base was provided in those solutions in the proportions given in the following table.
The respective solutions were prepared by combining the appropriate amounts of base, water, and elemental sulfur (when used to form the tetrathiocarbonate), in 250 ml. bottles. The contents were then tared, and the appropriate amounts of hydrogen sulfide gas were bubbled in with cooling as necessary to form 100 grams of each of the test solutions. The bottles were then capped with Mininert valves, and the appropriate amount of carbon disulfide was added by injecting with a syringe. All sample bottles were shaken overnight to complete the reaction and were then allowed to equilibrate 3 days at 24° C., and the vapor phase was then sampled and analyzed for carbon disulfide by gas chromotography. The results are reported in the following table and show the effects of increasing base concentrations on carbon disulfide partial pressure (carbon disulfide content of the equilibrium vapor phase). Hydrogen sulfide was not detected in the vapor phase of these formulations at an H₂S detection limit of 100 ppmv.
The operation described in Example 19 was repeated with the exception that sodium sulfide (Na₂S) was substituted for excess base. The sodium sulfide was introduced by forming solutions containing incrementally greater amounts of sodium hydroxide and then adding additional amounts of hydrogen sulfide equivalent to the amount of excess sodium hydroxide to convert the excess sodium hydroxide to sodium sulfide in situ.

[5] = additive Concentration 0.5 Wt. %
[6] = additive Concentration 1.0 Wt. %
[7] = additive Concentration 2.0 Wt. %
[8] = 1 g/l, listed as K₂CS₄ (9.43%CS₂)
[9] = 10 g/l, listed as K₂CS₄ (9.43%CS₂)
[10] = 10 g/l, listed as Na₂CS₄ (10.6%CS₂)
[11] = 1 g/l, listed as Na₂CS₄ (10.6%CS₂)
[12] = Base 0.00 equivalent per equivalent of CS2, sodium salt, 12.9 weight percent equivalent CS2
[13] = Base 0.02 equivalent per equivalent of CS2
[14] = Base 0.04 equivalent per equivalent of CS2
[15] = Base 0.08 equivalent per equivalent of CS2
[16] = Base 0.12 equivalent per equivalent of CS2
[17] = Sulfide 0.02 equivalent per equivalent of CS2
[18] = Sulfide 0.04 equivalent per equivalent of CS2
[19] = Sulfide 0.08 equivalent per equivalent of CS2
[20] = Sulfide 0.12 equivalent per equivalent of CS2
[21] = Sulfide (Na2S) 0.00 equivalent per equivalent of CS2, sodium salt, 12.9 weight percent equivalent CS2
[22] = additive Concentration 5.0 Wt. %

O=C1O[C@H]([C@@H](O)CO)C(O)=C1O [Ascorbic Acid]
Increase (Decrease) in Half-Life, % [1, 5]: 0% | Increase (Decrease) in Half-Life, % [1, 6]: 0% | Increase (Decrease) in Half-Life, % [1, 7]: 0%

O=C(O)CC(O)(CC(=O)O)C(=O)O [Citric Acid, Na Salt]
Increase (Decrease) in Half-Life, % [1, 5]: 0% | Increase (Decrease) in Half-Life, % [1, 6]: 0% | Increase (Decrease) in Half-Life, % [1, 7]: 0%

Oc1ccc(O)cc1 [Hydroquinone]
Increase (Decrease) in Half-Life, % [1, 5]: 0%

S=C(S)SS [K₂CS₄, potassium tetrathiocarbonate]
Percent Control Phytophthora cinnamomi (Phytophthora cinnamomi; [8]): 56% | Percent Control Phytophthora cinnamomi (Phytophthora cinnamomi; [9]): 68% | Percent Control Verticillium dahliae (Verticillium dahliae; [8]): 27% | Percent Control Verticillium dahliae (Verticillium dahliae; [9]): 15% | Percent Control Fusarium oxysporum (Fusarium oxysporum; [8]): 8% | Percent Control Fusarium oxysporum (Fusarium oxysporum; [9]): 10% | Percent Control Fusarium oxysporum (Fusarium oxysporum; 100 g/l thiocarbonate solution per liter of diluted solution, listed as K₂CS₄ (9.43%CS₂)): 76% | Percent Control Sclerotium rolfsii (Sclerotium rolfsii; [8]): 42% | Percent Control Sclerotium rolfsii (Sclerotium rolfsii; [9]): 8% | Degradation Time ([2]; Soil Moisture 50 % of Saturation): 5 h | Degradation Time ([2]; Soil Moisture 100 % of Saturation): 48 h | urea dissolved by the solution [3]: 100% of its own weight

S=C(S)SS [Na₂CS₄, sodium tetrathiocarbonate]
Percent Control Phytophthora cinnamomi (Phytophthora cinnamomi; [10]): 37% | Percent Control Verticillium dahliae (Verticillium dahliae; [11]): 23% | Percent Control Fusarium oxysporum (Fusarium oxysporum; [11]): 4% | Percent Control Fusarium oxysporum (Fusarium oxysporum; [10]): 6% | Percent Control Fusarium oxysporum (Fusarium oxysporum; 100 g/l thiocarbonate solution per liter of diluted solution, listed as Na₂CS₄ (10.6%CS₂)): 100% | Percent Control Sclerotium rolfsii (Sclerotium rolfsii; [10]): 100% | equilibrium CS₂ concentration in the vapor phase [4]: approximately 14 volume percent | CS₂ in Equilibrium Vapor at 24° C., Vol. % [4, 12]: 14.4 Vol. % | CS₂ in Equilibrium Vapor at 24° C., Vol. % [4, 13]: 0.87 Vol. % | CS₂ in Equilibrium Vapor at 24° C., Vol. % [4, 14]: 0.47 Vol. % | CS₂ in Equilibrium Vapor at 24° C., Vol. % [4, 15]: 0.29 Vol. % | CS₂ in Equilibrium Vapor at 24° C., Vol. % [4, 16]: 0.27 Vol. % | CS₂ in Equilibrium Vapor at 24° C., Vol. % [4, 17]: 6.60 Vol. % | CS₂ in Equilibrium Vapor at 24° C., Vol. % [4, 18]: 0.74 Vol. % | CS₂ in Equilibrium Vapor at 24° C., Vol. % [4, 19]: 0.12 Vol. % | CS₂ in Equilibrium Vapor at 24° C., Vol. % [4, 20]: 0.13 Vol. % | CS₂ in Equilibrium Vapor at 24° C., Vol. % [4, 21]: 14.4 Vol. %

CCN(CC)CC [Triethylamine]
Increase (Decrease) in Half-Life, % [1, 6]: 0%

S=C(S)S [Trithiocarbonate, sodium trithiocarbonate]
equilibrium CS₂ concentration in the vapor phase [4]: 27 volume percent | CS₂ in Equilibrium Vapor at 24° C., Vol. % [4, 12]: 27.5 Vol. % | CS₂ in Equilibrium Vapor at 24° C., Vol. % [4, 13]: 34.2 Vol. % | CS₂ in Equilibrium Vapor at 24° C., Vol. % [4, 14]: 30.0 Vol. % | CS₂ in Equilibrium Vapor at 24° C., Vol. % [4, 15]: 0.67 Vol. % | CS₂ in Equilibrium Vapor at 24° C., Vol. % [4, 16]: 0.16 Vol. % | CS₂ in Equilibrium Vapor at 24° C., Vol. % [4, 17]: 45.9 Vol. % | CS₂ in Equilibrium Vapor at 24° C., Vol. % [4, 18]: 1.39 Vol. % | CS₂ in Equilibrium Vapor at 24° C., Vol. % [4, 19]: 0.57 Vol. % | CS₂ in Equilibrium Vapor at 24° C., Vol. % [4, 20]: 0.42 Vol. % | CS₂ in Equilibrium Vapor at 24° C., Vol. % [4, 21]: 27.5 Vol. %

NC(N)=O [Urea]
Increase (Decrease) in Half-Life, % [1, 22]: 0%

COc1ccc(O)cc1 [p-Methoxyphenol]
Increase (Decrease) in Half-Life, % [1, 5]: 0% | Increase (Decrease) in Half-Life, % [1, 6]: 0% | Increase (Decrease) in Half-Life, % [1, 7]: 0%

Elemental Sulfur
Increase (Decrease) in Half-Life, % [1, 6]: 0% | Increase (Decrease) in Half-Life, % ([1]; additive Concentration 3.0 Wt. %): 16% | Increase (Decrease) in Half-Life, % [1, 22]: 22%
